# From patent publication US9340543B2, “Helquat derivatives, preparation thereof, and use thereof as medicaments” (USTAV ORGANICKE CHEMIE A BIOCHEMIE AKADEMIE VED CR, V.V.I., priority 2013, dated 2016)
# Like-named read-outs stand apart in the source and are kept apart here.
# Key:
# [1] = system: CCRF-CEM; experiment: CellTiter-Glo luminescent cell viability assay (ATP quantification), CCRF-CEM; format: cell-based; settings: acute lymphoblastic leukemia cells, 72 h treatment, viable cells by ATP luminescence
# Method: (§1) Influence of the test compounds on viability (proliferation) of cell lines used was investigated in concentration range 0-100 μmol·l^−1.
# Suspension cell line CCRF-CEM is a permanent in vitro culture of acute lymphoblastic leukemia. CCRF-CEM cell line was cultivated in RPMI 1640 medium (Sigma-Aldrich, cat. no. R8758) with addition of 2 mmol·l^−1 glutamine (Invitrogen, cat. no. 35050-038), 10% fetal bovine serum (FBS, Sigma-Aldrich, cat. no. F9665), 100 IU/ml peniciline, 100 μg/ml streptomycine (Sigma-Aldrich, cat. no. P0781). Passaging was performed 2-3× a week. Population doubling time of CCRF-CEM cell line was 20 h under the cultivation conditions used.
# (§2) In order to test the sensitivity of the cell lines towards the studied helquats, cytotoxity test for cell viability assessment based on ATP quantification in cell lysates was used (CellTiter-Glo® Luminescent Cell Viability Assay, Promega, cat. no. G7571). In this test, ATP in cell lysates is detected using luciferase reaction. Luminescence intensity correlates with the ATP level and thus with quantity of metabolically active (viable) cells. IC50 value serves as the output, that is the concentration of the test compound which leads to 50% reduction in number of viable cells as compared to control, untreated population. To this end, IC50 value reflects efficiency of the test compound with regard to the given cell line.
# (§3) Cells in the exponential growth phase were seeded into a 96-well microtiter plate were plated at 3000 cells per well. Each well contained 90 μl of cell suspension. The next day, 10 μl of 10× concentrated test compound solutions were added. The effect of helquats was investigated in concentration range 1 to 100 μmol·l^−1 (e.g. 1; 2.5; 5; 7.5; 10; 15; 25; 50 and 100 μmol·l^−1). Apart from the section containing the concentration series of the test compound, each well contained 2 control columns, the first with pure medium (so called blank) and the second with cells in medium without the test compounds (control). Into wells containing controls and blanks, volume of solvent (water) equal to the volume of added compound solutions was added. After 72 h of incubation with the test compounds viability was determined according to the manufacturer's instructions. In short: microtiter well plate was left 30 min to reach the room temperature after it has been removed from the incubator. Then, into each well, 100 μl of the prepared detection agent was added. Next, the well plate was shaken for 2 min to complete the full lysis. Next, after the well had been left in the dark for 15 min, the luminescence was measured in each well using luminometer (Tecan Genios, Austria).
# (§4) IC50 value represents concentration of the test compound, which leads to 50% reduction of viable cells (inhibition of cell growth) after 72 h of the treatment. Each helquat concentration was tested in triplicates in a IC50 quantification and at least 3 independent IC50 quantification experiments were performed. IC50 values over 100 μmol·l^−1 were obtained by extrapolation of data measured in concentration range 0-100 μmol·l^−1 for the given helquat.
# [2] = system: HeLa; experiment: CellTiter-Glo luminescent cell viability assay (ATP quantification), HeLa; format: cell-based; settings: cervical cancer cells, 72 h treatment, viable cells by ATP luminescence
# Method: as §1
# Adherent cell line HeLa is a permanent in vitro culture derived from cervical cancer. HeLa cell line was cultivated in RPMI 1640 medium (Dutch modification) (Sigma-Aldrich, cat. no. R7638) with addition of 2 mmol·l^−1 glutamine (Invitrogen, see above), 10% fetal bovine serum (FBS, Sigma-Aldrich, see above), 100 IU/ml peniciline, 100 μg/ml streptomycine (Sigma-Aldrich, see above). Passaging was performed twice a week. After washing of cells with sterile PBS the cells were released by 0.25% trypsin/EDTA (Sigma-Aldrich, cat. no. T4049) at 37° C. for 2 minutes. The trypsin was inactivated by addition of 2 volumes of complete medium, cells were then centrifuged (250×g, 5 min), the cell pellet was resuspended, and transferred in the amount needed into a new cultivation bottle with fresh medium. Population doubling time of […] cell line was 25 h under the cultivation conditions used.
# as §2, §3, §4
# [3] = system: Hep G2; experiment: CellTiter-Glo luminescent cell viability assay (ATP quantification), Hep G2; format: cell-based; settings: hepatocellular carcinoma cells, 72 h treatment, viable cells by ATP luminescence
# Method: as §1
# Adherent cell line Hep G2 is a permanent in vitro culture derived from liver tissue of a patient with hepatocellular carcinoma. Hep G2 cell line was cultivated in DMEM medium (Sigma-Aldrich, cat. no. M4528) with addition of 2 mmol·l^−1 glutamine (Invitrogen, see above), 10% fetal bovine serum (FBS, Sigma-Aldrich, see above), 100 IU/ml peniciline, 100 μg/ml streptomycine (Sigma-Aldrich, see above). Passaging was performed twice a week. After washing of cells with sterile PBS, the cells were released by 0.25% trypsin/EDTA (Sigma-Aldrich, see above) at 37° C. for 2 minutes. The trypsin was inactivated by addition of 2 volumes of complete medium, cells were then centrifuged (250×g, 5 min), resuspended, and transferred in the amount needed into a new cultivation bottle with fresh medium. Population doubling time of Hep G2 cell line was 28 h under the cultivation conditions used.
# as §2
# as §3, with “In short: microtiter well plate was left 30 min to reach the room temperature after it has been removed from the incubator. Then, into each well, 100 μl of the prepared detection agent was added. Next, the well plate was shaken for 2 min to complete the full lysis.” left out, “Austria). […]” for “Austria).”
# [4] = system: MOLT-4; experiment: CellTiter-Glo luminescent cell viability assay (ATP quantification), MOLT-4; format: cell-based; settings: acute lymfoblastic leukemia cells, 72 h treatment, viable cells by ATP luminescence
# Method: as §1
# Suspension cell line MOLT-4 is a permanent in vitro culture of acute lymfoblastic leukemia. Linie MOLT-4 cell line was cultivated in RPMI 1640 medium (Sigma-Aldrich, see above) with addition of 2 mmol glutamine (Invitrogen, see above), 10% fetal bovine serum (FBS, Sigma-Aldrich, see above), 100 IU/ml peniciline, 100 μg/ml streptomycine (Sigma-Aldrich, see above). Passaging was performed 2-3× a week. Population doubling time of […] cell line was 25 h under the cultivation conditions used.
# as §2, §3, §4
# [5] = system: HUVEC; experiment: CellTiter-Glo luminescent cell viability assay (ATP quantification), HUVEC normal cells; format: cell-based, human; settings: 72 h treatment
# Method: as §1
# Normal human endothelial cells from umbilical vein are adherent cells cultivated in plastic Petri dishes coated with collagen I. Into the cultivation medium (E-STIM™; BD Biosciences, cat. co. 355054) already containing 2% FBS (fetal bovine serum), hydrocortisone and heparin the following two further ingredients were added: epidermal growth factor (EGF, 5 μg) and mixture of factors facilitating growth of endothelial cells (ECGS, 100 mg). […] The cells were passaged after reaching 90% confluency by dissociation using 0.25% solution of trypsin/EDTA (1 ml; 3 min; 37° C.). After that 5 ml of complete cultivation medium E-STIM™ was added and the cells were centrifuged (180×g, 7 min), the pellet was resuspended, and transferred in the amount needed into a new Petri dish with fresh medium. The cells were used in experiments between the 3rd and the 8th passage after defreezing. Population doubling time of HUVEC cell line was 38 h under the cultivation conditions used.
# as §2, §3, §4
IC50 [1] [µM],IC50 [2] [µM],IC50 [4] [µM],"IC50 ([1]; Homo sapiens, CCRF-CEM) [µM]","IC50 ([2]; Homo sapiens, HeLa) [µM]","IC50 ([4]; Homo sapiens, MOLT-4) [µM]",Compound,IC50 ([3]; read-out: IC50 HepG2) [µM],"IC50 ([5]; normal human endothelial cells, numeric bound, values over 100 obtained by extrapolation of data measured at 0-100 μmol·l−1) [µM]","IC50 ([3]; Homo sapiens, HepG2) [µM]","IC50 ([5]; HUVEC, normal human endothelial cells, numeric bound, values over 100 obtained by extrapolation of data measured at 0-100 μmol·l−1) [µM]","IC50 ([5]; normal human endothelial cells from umbilical vein, viable cells by ATP luminescence, class symbols) [µM]"
< 10,< 10,< 10,,,,"Cc1c(C)c2c(c3c1CC[n+]1ccc(/C=C/c4ccc(N(C)C)cc4)cc1-3)-c1c3ccccc3cc[n+]1CC2 [(M)-1, (M)-(E)-13-(4-(dimethylamino)styryl)-6,7-dimethyl-4,5,8,9-tetrahydroiso-quinolino[1,2-a]pyrido[1,2-k][2,9]phenanthroline-3,10-diium trifluoromethanesulfonate]",11 to 50,> 150,,,
,,,11 to 50,11 to 50,11 to 50,"COc1ccc(/C=C/c2cc[n+]3c(c2)-c2c(c(C)c(C)c4c2-c2c5ccccc5cc[n+]2CC4)CC3)cc1 [(M)-6, (M)-(E)-13-(4-methoxystyryl)-6,7-dimethyl-4,5,8,9-tetrahydroisoquinolino[1,2-a]pyrido[1,2-k][2,9]phenanthroline-3,10-diium trifluoromethanesulfonate]",,,11 to 50,> 150,
< 10,< 10,< 10,,,,"COc1ccc2cc(/C=C/c3cc[n+]4c(c3)-c3c(c(C)c(C)c5c3-c3c6ccccc6cc[n+]3CC5)CC4)ccc2c1 [(M)-7, (M)-(E)-13-(2-(6-methoxynaphthalene-2-yl)vinyl)-6,7-dimethyl-4,5,8,9-tetrahydroisoquinolino[1,2-a]pyrido[1,2-k][2,9]phenanthroline-3,10-diium trifluoromethanesulfonate]",11 to 50,,,,51 to 150
